Experimental data taken from PubChem BioAssay (NCI).
“And” between values parts separate entries of the source, which are not always exact repeats. Identical values can stand only once.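 A five-concentration, 48-hour dose response in 96-well plates underlies each endpoint, interpolated linearly between surrounding concentrations. GI50 = concentration required for 50% inhibition of growth. The concentration for full growth arrest is given as TGI.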

Experiments:
Assay in all cases: NCI tumour cell line growth inhibition, 48 h
786-0 renal = test system: 786-0 renal
BT-549 breast = test system: BT-549 breast
COLO 205 colon = test system: COLO 205 colon
DU-145 prostate = test system: DU-145 prostate
MOLT-4 leukemia = test system: MOLT-4 leukemia
OVCAR-3 ovarian = test system: OVCAR-3 ovarian
SK-MEL-28 melanoma = test system: SK-MEL-28 melanoma
SNB-19 CNS = test system: SNB-19 CNS

Structure (SMILES)	GI50 (786-0 renal)	TGI (786-0 renal)	GI50 (BT-549 breast)	TGI (BT-549 breast)	GI50 (COLO 205 colon) [µM]	TGI (COLO 205 colon) [µM]	GI50 (DU-145 prostate)	TGI (DU-145 prostate)	GI50 (MOLT-4 leukemia)	TGI (MOLT-4 leukemia)	GI50 (OVCAR-3 ovarian)	TGI (OVCAR-3 ovarian)	GI50 (SK-MEL-28 melanoma)	TGI (SK-MEL-28 melanoma)	GI50 (SNB-19 CNS)	TGI (SNB-19 CNS)
CCN(CC)c1ccc(/C=C/C(=O)c2cccc(NS(C)(=O)=O)c2)cc1	4980 nM	> 100 µM	4670 nM	> 100 µM	5.28	> 100	7200 nM	> 100 µM	4090 nM	> 100 µM	6370 nM	> 100 µM	43.5 µM	> 100 µM	86 µM	> 100 µM
O=C1C[C@@H](c2ccccc2)NCCCCN(O)CCCN1		> 100 µM		> 100 µM		> 100		> 100 µM		> 100 µM		> 100 µM		> 100 µM		> 100 µM
CC(=O)OC1CCC2(C)C(CCC3C2CCC2(C)C(C4=CC(=O)OC4)CCC32)C1 (stereo unspecified)	15600 nM	39.7 µM	4190 nM	25.4 µM	12.8	> 100	14700 nM	40.3 µM	2600 nM	6.3 µM	20600 nM	86 µM	4.75 µM	22 µM	8.49 µM	38.4 µM
CC1=C[C@H]2c3c(c(O)c(O)c4oc5cc(O)cc(O)c5c(=O)c34)[C@H](c3cc(O)c(O)c4oc5cc(O)cc(O)c5c(=O)c34)[C@H]2C(C)(C)C1	2430 nM and 2160 nM	6.66 µM and 6.33 µM	664 nM and 1870 nM	8.48 µM and 6.24 µM	2.65	7.33	2480 nM and 2080 nM	11.4 µM and 12.8 µM	764 nM and 1920 nM	3.31 µM and 12.9 µM	1700 nM and 2000 nM	4.02 µM and 7.54 µM	1.5 µM and 1.76 µM	3.44 µM and 4.28 µM	1.33 µM and 1.3 µM	3.31 µM and 4.93 µM
OC(COc1ccc(Cl)cc1Cl)CN1CCCC1 (stereo unspecified)		> 100 µM		> 100 µM		> 100		> 100 µM		> 100 µM		> 100 µM		> 100 µM		> 100 µM
Cc1sc2nc(-c3ccccn3)c(/C=N/N=C(N)N)n2c1C	4840 nM	12.6 µM	1920 nM	4.39 µM	4.97	11.4	4880 nM	12.6 µM	10200 nM	> 27.5 µM	8030 nM	15.6 µM	4 µM	9.13 µM	7.52 µM	19.5 µM
O=C(Cc1ccc(/C=C/C(=O)c2ncc[nH]2)cc1)Nc1ccc(Br)cc1	946 nM	3.13 µM	1550 nM	4.04 µM	2.57	5.74	1100 nM	4.89 µM	4020 nM	> 16.7 µM	850 nM	3.88 µM	3.07 µM	6.65 µM	2.54 µM	7.99 µM
COc1ccc(S(=O)(=O)O)cc1NS(=O)(=O)c1ccc(C)cc1		> 100 µM		> 100 µM		> 100		> 100 µM		> 100 µM		> 100 µM		> 100 µM		> 100 µM
CC(C)[C@@H](C(=O)O[C@@H]1/C=C/C(=O)O[C@@H](C)CCC/C=C/[C@@H]2C[C@H](O)C[C@H]21)[N+](C)(C)C	> 100000 nM	> 100 µM	> 100000 nM	> 100 µM	> 100	> 100	> 100000 nM	> 100 µM	> 100000 nM	> 100 µM	> 100000 nM	> 100 µM	> 100 µM	> 100 µM	> 100 µM	> 100 µM
COc1cc2c(cc1OCCCCCCNC(=O)c1cc3ccccc3[nH]1)N=CC1CCCN1C2=O (stereo unspecified)	> 100000 nM	> 100 µM	21700 nM	74.2 µM	45.4	> 100	21600 nM	72.1 µM	31600 nM	> 100 µM	6170 nM	> 100 µM	> 100 µM	> 100 µM	63.1 µM	> 100 µM
Nc1c(C(=O)Nc2cccc3ccccc23)sc2nc3c(cc12)CCCC3	1110 nM	> 100 µM	1400 nM	17.2 µM	2.45	9.53	2620 nM	> 100 µM	637 nM	> 100 µM	577 nM	> 100 µM	19.2 µM	> 100 µM	4.12 µM	> 100 µM
COC(=O)c1[nH]nc(-c2ccccc2)c1N1CCCCC1	21100 nM	57.9 µM	43900 nM	> 100 µM	> 100	> 100	30500 nM	> 100 µM	62600 nM	> 100 µM	40700 nM	> 100 µM	52.1 µM	> 100 µM	36.2 µM	> 100 µM
Cc1cc(C)cc(Nc2nccc(-c3c(-c4ccc(F)cc4)ncn3C3CCNCC3)n2)c1	1310 nM	2.79 µM	1520 nM	3.11 µM	1.41	3.21	1460 nM	3.14 µM	2030 nM	5.32 µM	1390 nM	2.87 µM	1.78 µM	3.26 µM	1.68 µM	3.71 µM
BrP(NC1CCCCCC1)(c1ccccc1)(c1ccccc1)c1ccccc1		32.3 µM		9.57 µM		5.4		29.9 µM				9.94 µM		6.62 µM		16.8 µM
O=C1c2c(c3c4ccccc4n4c3c3c2c2ccccc2n3C/C=C\C4)C(=O)N1Cc1ccccc1		> 100 µM				> 100				> 100 µM		> 100 µM		> 100 µM		> 100 µM
COC(=O)[C@]12CC[C@@H](C)[C@H](C)[C@@H]1C1=CC[C@@H]3[C@@]4(C)C(c5ncon5)=C[C@@](C)(CO)C4=CC[C@@]3(C)[C@]1(C)CC2	2910 nM	8.58 µM	2390 nM	6.38 µM	1.96	4.15	1770 nM	3.26 µM	1690 nM	3.92 µM	1790 nM	3.25 µM			2.84 µM	11.6 µM
